The record followed here is PMC8216447, “Factors affecting the buccal delivery of deformable nanovesicles based on insulin–phospholipid complex: an in vivo investigation” (Drug Delivery, 2020).

This assay concerns normal rabbits. Briefly: In vivo hypoglycemic effect, rabbit esophageal ligation model. The conditions noted are these: insulin solution 3 mg/mL. Here is the method:
The relative pharmacological bioactivity of insulin delivered via the transmucosal route by IPC-DNVs in different drug doses, delivery sites, ligation times, drug concentrations, sizes, and deformabilities was evaluated in normal rabbits by assessing the hypoglycemic effects. […] After fasting for 2 h, the rabbits were weighed and anesthetized with pentobarbital (2%, 50 mg/kg) through the ear margin vein. During anesthesia, the animals were restrained in a supine position to a board. The esophagus was surgically ligated to prevent swallowing. The drug solution for buccal administration (oral mucosa) was divided into four parts; two parts for administration via sublingual mucosa, and two parts for administration via left and right buccal mucosa. The sublingual mucosa and the buccal mucosa groups were administered only to the sublingual mucosa or buccal mucosa. After administration of the drug solution for 30 min (except the group with ligation time of 15 min), the esophagus was untied, and the response of the animals was observed. Blood samples were collected from the ear veins at predetermined time intervals (0, 0.5, 1, 1.5, 2, 2.5, 3, 3.5, 4, 4.5, 5, and 6 h) after DNVs administration and blood glucose levels were measured using a Blood Analyzer (ONETOUCH Ultra; Johnson & Johnson, New Brunswick, NJ, USA). […]

As to “Recombinant human insulin [insulin solution]”, the hypoglycemic effect result (1 IU/kg, subcutaneous administration) is “evident”. Further, the “glucose levels within 6 h after buccal administration” value (10 IU/kg, buccal administration (control)) is “barely changed”.
